Article doi:10.1101/2024.08.25.609621 (bioRxiv, 2024)
Where “and” joins values, the source holds several entries; their conditions need not be identical. Identical values can stand only once. Like-named read-outs stand apart in the source and are kept apart here.

Key:
[1] = target: SARS-CoV-2 NSP3 macrodomain (Mac1), P43 crystal form (Severe acute respiratory syndrome coronavirus 2, UniProt P0DTD1); type: binding; conditions: for 1-BDC: PanDDA background density correction; for X-ray crystal structure: X-ray crystal structure determined (TRUE); for Total number of conformations: ligand conformations modeled in Mac1 crystal structure; for Binding site: site of ligand in X-ray crystal structure; for X-ray crystallography: Binding site: site where the ligand is bound in the X-ray crystal structure
[2] = target: SARS-CoV-2 NSP3 macrodomain (Mac1) (Severe acute respiratory syndrome coronavirus 2, UniProt P0DTD1); test: biochemical; type: binding; conditions: for SARS CoV-2 macrodomain HTRF assay: Hillslope: dose-response fit
[3] = crystal soak 10 mM, P43 crystals
[4] = crystal soak 10 mM, DMSO background map
[5] = occupancy estimate from PanDDA 1-BDC
[6] = preliminary screen, compound at 200 μM, mean of 3-4 technical replicates
[7] = SARS CoV-2 macrodomain HTRF assay, dose-response
[8] = Single dose, concentration 200 μM, read-out: Average % competition
[9] = preliminary screen, compound at 200 μM, mean of 3-4 technical replicates, read-out: % competition in HTRF assay
[10] = crystal soak, soak concentration 10 mM
[11] = crystal soak, soak concentration 10 mM, TRUE = ligand hit
[12] = soak concentration 10 mM, DMSO background map
[13] = Single dose, concentration 200 μM, read-out: SARS CoV-2 macrodomain HTRF assay: Average % competition
[14] = crystal soak 10 mM, DMSO background map, event 1
[15] = occupancy estimate from PanDDA BDC
[16] = crystal soak concentration 10 mM, P43 crystals
[17] = crystal soak concentration 10 mM, DMSO background map

Structure (SMILES)	1-BDC [1]	X-ray crystal structure [1]	Pandda run, overall: Hit [1, 3]	Pandda run, overall: Modeled [1, 3]	PanDDA run, DMSO background map: 1-BDC [1, 4]	PanDDA run, DMSO background map: Hit [1, 4]	Total number of conformations [1]	2*(1-BDC) (%) [1, 5] [%]	Binding site [1]	Hill slope ([2]; HTRF dose-response fit, Mac1)	Hill slope [2, 7]	inhibition at 200 µM [2, 9] [%]	Pandda run, overall: Modeled [1, 10]	Pandda run, overall: Hit [1, 11]	X-ray crystallography: Binding site [1]	PanDDA run, DMSO background map: 1-BDC [1, 12]	PanDDA run, DMSO background map: Hit [1, 12]	inhibition at 200 µM [2, 13] [%]	SARS CoV-2 macrodomain HTRF assay: Hillslope [2]	also measured
CN(C)CC(CO)Nc1ncnc2[nH]ccc12 (stereo not shown) [AVI-3671]	0.17	TRUE	TRUE	TRUE	0.17	TRUE	1	34	Adenosine											% competition in HTRF assay [2, 6]: neither had detectable binding
OCC(CN1CCCCC1)Nc1ncnc2[nH]ccc12 (stereo not shown) [AVI-3677]	0.21	TRUE	TRUE	TRUE	0.21	TRUE	1	42	Adenosine											% competition in HTRF assay [2, 6]: neither had detectable binding
O=C(O)C(F)(F)F.OCC1(Nc2ncnc3[nH]ccc23)CCCC1 [AVI-3692]	0.22	TRUE	TRUE	TRUE	0.22	TRUE	1	44	Adenosine	1.3	1.3	85								inhibition at 200 µM [2, 8]: 85%
CCC(CC)(CO)Nc1ncnc2[nH]ccc12 [AVI-3695]	0.12	TRUE	TRUE	TRUE	0.12	TRUE	2	24	Adenosine	1.3	1.3	89								inhibition at 200 µM [2, 8]: 89%
CCC(C)(CO)Nc1ncnc2[nH]ccc12 (stereo not shown) [AVI-3697]	0.16	TRUE	TRUE	TRUE	0.16	TRUE	1	32	Adenosine	1.2	1.2	91								inhibition at 200 µM [2, 8]: 91%
CC1(C)C[C@@H](CO)N(c2ncnc3[nH]ccc23)C1.O=C(O)C(F)(F)F [AVI-3704]	0.33						1	66		1.1		90	TRUE	TRUE	Adenosine	0.33	TRUE	90	1.1	
OCC1CC2(CCCC2)CN1c1ncnc2[nH]ccc12 (stereo not shown) [AVI-3708]	0.32						1	64		1.1		90	TRUE	TRUE	Adenosine	0.32	TRUE	90	1.1	
OCC1C2CCC(C2)N1c1ncnc2[nH]ccc12 (stereo not shown) [AVI-3713]	0.29						1	58		1.1		92	TRUE	TRUE	Adenosine	0.29	TRUE	92	1.1	
OC[C@@H]1C[C@@H]2CCC[C@@H]2N1c1ncnc2[nH]ccc12 [AVI-3720]	0.29						1	58		1.2		92	TRUE	TRUE	Adenosine	0.29	TRUE	92	1.2	Phe132 loop open state ([1]; TRUE = open state of Phe132 loop modeled): TRUE
O=C(O)C(F)(F)F.OC1([C@H]2CCCN2c2ncnc3[nH]ccc23)Cc2ccccc2C1 [AVI-3731]	0.2						1	40		1.1		100	TRUE	TRUE	Adenosine	0.2	TRUE	100	1.1	
OCCC(CO)Nc1ncnc2[nH]ccc12 (stereo not shown) [AVI-3734]	0.25	TRUE					1	50	Adenosine	1.2	1.2	86	TRUE	TRUE		0.25	TRUE			inhibition at 200 µM [2, 8]: 86%
CC(O)C1CCCN1c1ncnc2[nH]ccc12 (stereo not shown) [AVI-4062]	0.26						1			1.1					Adenosine				1.1	Occupancy difference (refined_occupancy - 2*(1-BDC)) [1]: 18; Refined ligand occupancy (%) [1]: 70%; Hit (PanDDA run, overall) [1, 3]: TRUE; Hit (PanDDA run, DMSO background map) [1, 4]: TRUE; 1-BDC (PanDDA run, DMSO background map) [1, 14]: 0.26 and 0.29; 2*(1-BDC) (%) [1, 15]: 52%
O=C(O)C(F)(F)F.OC[C@H](Cc1ccc(O)cc1)Nc1ncnc2[nH]ccc12 [AVI-4066]	0.2	TRUE					1		Adenosine	1.1	1.1									Occupancy difference (refined_occupancy - 2*(1-BDC)) [1]: 10; Refined ligand occupancy (%) [1]: 50%; Hit (PanDDA run, overall) [1, 3]: TRUE; Hit (PanDDA run, DMSO background map) [1, 4]: TRUE; 1-BDC (PanDDA run, DMSO background map) [1, 14]: 0.2 and 0.37 and 0.38; 2*(1-BDC) (%) [1, 15]: 40%; Refined TFA occupancy (%) ([1]; occupancy of TFA in the dataset of the named ligand): 20%
CC(C)(O)C1N(c2ncnc3[nH]ccc23)CCC1(C)C (stereo not shown) [AVI-4126]	0.16						2			1.3					Adenosine				1.3	Occupancy difference (refined_occupancy - 2*(1-BDC)) [1]: 8; Phe132 loop open state [1]: TRUE; Refined ligand occupancy (%) [1]: 40%; PanDDA run, DMSO background map: 1-BDC ([1]; crystal soak concentration 10 mM, DMSO background map, event 1): 0.17 and 0.16; Pandda run, overall: Hit [1, 16]: TRUE; Pandda run, overall: Modeled [1, 16]: TRUE; Pandda run, overall: Modeling comment [1, 16]: Duplicate, not modeled; PanDDA run, DMSO background map: Hit [1, 17]: TRUE; PanDDA run, DMSO background map: Modeled [1, 17]: TRUE; 2*(1-BDC) (%) [1, 15]: 32%
